Where two headings read alike, the source gives them in different places.
Tests used:
[1] = system: Key Broadleaf Weed and Crop Species; assay: Post-emergent Test II herbicidal activity (Table 5); format: in vivo; settings: post-emergence, 336 h, 14 days after application; for pest or weed control at 70 g/ha: application rate 70 g ai/ha; for pest or weed control at 140 g/ha: application rate 140 g ai/ha
In short: (§1)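 Compounds, dissolved in 97:3 acetone/DMSO and diluted into an aqueous carrier containing crop oil concentrate and Triton X-155, are applied over the top of young plants at 187 L/ha. Injury is scored visually at 14 d, 0% meaning no effect and 100% complete kill.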

[2] = system: Key Grass and Sedge Weeds as well as Grass Crops; assay: Post-emergent Test II herbicidal activity (Table 6); format: in vivo; settings: post-emergence, 336 h; for pest or weed control at 70 g/ha: 70 g ai/ha; for pest or weed control at 140 g/ha: 140 g ai/ha
In short: as §1

[3] = ABUTH: velvetleaf (Abutilon theophrasti), read-out: Visual Growth Reduction (%) 14 Days After Application, ABUTH
[4] = AMARE: redroot pigweed (Amaranthus retroflexus), read-out: Visual Growth Reduction (%) 14 Days After Application, AMARE
[5] = BRSNN: oilseed-rape, canola (Brassica napus), read-out: Visual Growth Reduction (%) 14 Days After Application, BRSNN
[6] = CHEAL: lambsquarters (Chenopodium album), read-out: Visual Growth Reduction (%) 14 Days After Application, CHEAL
[7] = EPHHL: wild poinsettia (Euphorbia heterophylla), read-out: Visual Growth Reduction (%) 14 Days After Application, EPHHL
[8] = HELAN: sunflower (Helianthus annuus), read-out: Visual Growth Reduction (%) 14 Days After Application, HELAN
[9] = VIOTR: wild pansy (Viola tricolor), read-out: Visual Growth Reduction (%) 14 Days After Application, VIOTR
[10] = CYPES: yellow nutsedge (Cyperus esculentus), read-out: Visual Growth Reduction (%) 14 Days After Application, CYPES
[11] = DIGSA: crabgrass (Digitaria sanguinalis), read-out: Visual Growth Reduction (%) 14 Days After Application, DIGSA
[12] = ECHCG: barnyardgrass (Echinochloa crus-galli), read-out: Visual Growth Reduction (%) 14 Days After Application, ECHCG
[13] = ORYSA: rice (Oryza sativa), crop, read-out: Visual Growth Reduction (%) 14 Days After Application, ORYSA
[14] = SETFA: giant foxtail (Setaria faberi), read-out: Visual Growth Reduction (%) 14 Days After Application, SETFA
[15] = SORVU: grain sorghum (Sorghum vulgare), read-out: Visual Growth Reduction (%) 14 Days After Application, SORVU
[16] = TRZSS (wheat, Triticum aestivum), crop, read-out: Visual Growth Reduction (%) 14 Days After Application, TRZSS
[17] = ZEAMX: maize, corn (Zea mays), crop, read-out: Visual Growth Reduction (%) 14 Days After Application, ZEAMX

SMILES | pest or weed control at 70 g/ha [1, 3] [%] | pest or weed control at 140 g/ha [1, 3] [%] | pest or weed control at 70 g/ha [1, 4] [%] | pest or weed control at 140 g/ha [1, 4] [%] | pest or weed control at 70 g/ha [1, 5] [%] | pest or weed control at 140 g/ha [1, 5] [%] | pest or weed control at 70 g/ha [1, 6] [%] | pest or weed control at 140 g/ha [1, 6] [%] | pest or weed control at 70 g/ha [1, 7] [%] | pest or weed control at 140 g/ha [1, 7] [%] | pest or weed control at 70 g/ha [1, 8] [%] | pest or weed control at 140 g/ha [1, 8] [%] | pest or weed control at 70 g/ha [1, 9] [%] | pest or weed control at 140 g/ha [1, 9] [%] | pest or weed control at 70 g/ha [2, 10] [%] | pest or weed control at 140 g/ha [2, 10] [%] | pest or weed control at 70 g/ha [2, 11] [%] | pest or weed control at 140 g/ha [2, 11] [%] | pest or weed control at 70 g/ha [2, 12] [%] | pest or weed control at 140 g/ha [2, 12] [%] | also measured
COC(=O)c1nc(-c2ccc([N+](=O)[O-])cc2)c(F)c(N)c1Cl [Compound 95, methyl 4-amino-3-chloro-5-fluoro-6-(4-nitrophenyl)picolinate] | 60 to 74 | 75 to 84 | 95 to 100 | 95 to 100 | 0 to 29 | 30 to 44 | 95 to 100 | 95 to 100 | 95 to 100 | 95 to 100 | 95 to 100 | 95 to 100 | 0 to 29 | 0 to 29 | 45 to 59 | 75 to 84 | 0 to 29 | 0 to 29 | 85 to 94 | 95 to 100 | pest or weed control at 70 g/ha [2, 13]: 0 to 29%; pest or weed control at 140 g/ha [2, 13]: 0 to 29%; pest or weed control at 70 g/ha [2, 14]: 0 to 29%; pest or weed control at 140 g/ha [2, 14]: 0 to 29%; pest or weed control at 70 g/ha [2, 15]: 60 to 74%; pest or weed control at 140 g/ha [2, 15]: 60 to 74%; pest or weed control at 70 g/ha [2, 16]: 0 to 29%; pest or weed control at 140 g/ha [2, 16]: 0 to 29%; pest or weed control at 70 g/ha [2, 17]: 0 to 29%; pest or weed control at 140 g/ha [2, 17]: 0 to 29%
COC(=O)c1nc(-c2ccc(Br)cc2)nc(N)c1OC [Compound 97] | 85 to 94 | 95 to 100 | 95 to 100 | 95 to 100 | 85 to 94 | 95 to 100 | 85 to 94 | 95 to 100 | 95 to 100 | 95 to 100 | 75 to 84 | 95 to 100 | 60 to 74 | 95 to 100 | 95 to 100 | 95 to 100 | 45 to 59 | 45 to 59 | 0 to 29 | 60 to 74 | pest or weed control at 70 g/ha [2, 13]: 0 to 29%; pest or weed control at 140 g/ha [2, 13]: 0 to 29%; pest or weed control at 70 g/ha [2, 14]: 0 to 29%; pest or weed control at 140 g/ha [2, 14]: 30 to 44%; pest or weed control at 70 g/ha [2, 15]: 0 to 29%; pest or weed control at 140 g/ha [2, 15]: 30 to 44%; pest or weed control at 70 g/ha [2, 16]: 30 to 44%; pest or weed control at 140 g/ha [2, 16]: 60 to 74%; pest or weed control at 70 g/ha [2, 17]: 95 to 100%; pest or weed control at 140 g/ha [2, 17]: 95 to 100%

— patent publication US9113629B2, “4-amino-6-(4-substituted-phenyl)-picolinates and 6-amino-2-(4-substituted-phenyl)-pyrimidine-4-carboxylates and their use as herbicides” (DOW AGROSCIENCES LLC, priority 2013, dated 2015)
